# Test results taken from ChEMBL document CHEMBL1148357, “Novel dicationic imidazo[1,2-a]pyridines and 5,6,7,8-tetrahydro-imidazo[1,2-a]pyridines as antiprotozoal agents” (J Med Chem, 2004).
# pIC50: −log10 of the molar value.
# Tests used:
# Mus musculus [1] = assay: Number of mice (out of 4) cured from Trypanosoma brucei rhodesiense infection which are parasite free for 60 days was determined at i.p. dose of 20 mg/kg; assay type: functional; details: route intraperitoneal
# Plasmodium falciparum = assay: In vitro inhibitory activity for Plasmodium falciparum; assay type: functional, organism-based
# [2] = tested on: Trypanosoma brucei rhodesiense; assay: In vitro inhibitory activity against Trypanosoma brucei rhodesiense; assay type: functional, organism-based
# Mus musculus [3] = assay: In vivo average survival days of mice infected by Trypanosoma brucei rhodesiense was determined for a period of 60 days at p.o. dose of 100 mg/kg; assay type: functional; details: route oral
# Mus musculus [4] = assay: Number of mice (out of 4) cured from Trypanosoma brucei rhodesiense infection which are parasite free for 60 days was determined at p.o. dose of 100 mg/kg; assay type: functional; details: route oral
# Nucleic Acid = assay: In vitro binding affinity towards Poly (dA-dT)2; assay type: nucleic-acid assay
# Mus musculus [5] = assay: In vivo average survival days of mice infected by Trypanosoma brucei rhodesiense was determined for a period of 60 days at i.p. dose of 20 mg/kg; assay type: functional; details: route intraperitoneal
# Mus musculus [6] = assay: In vivo average survival days of mice infected by Trypanosoma brucei rhodesiense was determined for a period of 60 days at p.o. dose of 75 mg/kg; assay type: functional; details: route oral
# Mus musculus [7] = assay: Number of mice (out of 4) cured from Trypanosoma brucei rhodesiense infection which are parasite free for 60 days was determined at p.o. dose of 75 mg/kg; assay type: functional; details: route oral
# Mus musculus [8] = assay: In vivo average survival days of mice infected by Trypanosoma brucei rhodesiense was determined for a period of 60 days at i.p. dose of 10 mg/kg; assay type: functional; details: route intraperitoneal
# Mus musculus [9] = assay: Number of mice (out of 4) cured from Trypanosoma brucei rhodesiense infection which are parasite free for 60 days was determined at i.p. dose of 10 mg/kg; assay type: functional; details: route intraperitoneal
# Mus musculus [10] = assay: In vivo average survival days of mice infected by Trypanosoma brucei rhodesiense was determined for a period of 60 days at p.o. dose of 50 mg/kg; assay type: functional; details: route oral
# Mus musculus [11] = assay: Number of mice (out of 4) cured from Trypanosoma brucei rhodesiense infection which are parasite free for 60 days was determined at p.o. dose of 50 mg/kg; assay type: functional; details: route oral
# Mus musculus [12] = assay: Number of mice (out of 4) cured from Trypanosoma brucei rhodesiense infection which are parasite free for 60 days was determined at i.p. dose of 5 mg/kg; assay type: functional; details: route intraperitoneal
# Mus musculus [13] = assay: In vivo average survival days of mice infected by Trypanosoma brucei rhodesiense was determined for a period of 60 days at i.p. dose of 5 mg/kg; assay type: functional; details: route intraperitoneal
SMILES,No. of cures (Mus musculus [1]),pIC50 (Plasmodium falciparum),pIC50 [2],ΔTm (Nucleic Acid),Survival (Mus musculus [5]),also measured
N=C(N)c1ccc(OCCCCCOc2ccc(C(=N)N)cc2)cc1 [PENTAMIDINE],0,–,–,–,–,–
CONC(=N)c1ccc(-c2ccc(-c3cn4cc(C(=N)NOC)ccc4n3)o2)cc1,–,5.55,5.52,–,–,Survival (Mus musculus [3]): >39.5 days; No. of cures (Mus musculus [4]): 2
N=C(N)c1ccc(-c2ccc(-c3cn4cc(C(=N)N)ccc4n3)cc2)cc1,4,7.37,9.00,24.2,>60 days,–
N=C(N)c1ccc(-c2cccc(-c3cn4cc(C(=N)N)ccc4n3)c2)cc1,4,6.97,7.66,> 27,>60 days,–
CONC(=N)c1ccc(-c2ccc(-c3ccc(C(=N)NOC)cc3)o2)cc1 [PAFURAMIDINE],–,7.81,8.35,25,–,Survival (Mus musculus [3]): >60 days; No. of cures (Mus musculus [4]): 4
CONC(=N)c1ccc(-c2ccc(-c3cn4cc(C(=N)NOC)ccc4n3)cc2)cc1,–,6.40,5.28,0.3,–,Survival (Mus musculus [6]): 20 days; No. of cures (Mus musculus [7]): 0
Cc1cc(C(=N)N)cn2cc(-c3ccc(-c4ccc(C(=N)N)cc4)o3)nc12,4,7.06,8.22,> 27,>60 days,–
N=C(N)c1ccc(-c2ccc(-c3ccc(C(=N)N)cc3)o2)cc1 [FURAMIDINE],0,–,–,–,–,–
N=C(N)c1ccc(-c2ccc(-c3cn4c(n3)CCC(C(=N)N)C4)cc2)cc1 (stereo not drawn),–,7.85,6.94,21.3,–,Survival (Mus musculus [8]): >51.5 days; No. of cures (Mus musculus [9]): 3
N=C(N)c1ccc(-c2cccc(-c3cn4c(n3)CCC(C(=N)N)C4)c2)cc1 (stereo not drawn),–,7.07,6.65,19.1,–,–
N=C(N)c1ccc(-c2ccc(-c3cn4cc(C(=N)N)ccc4n3)o2)cc1,4,7.85,7.20,26.2,>60 days,–
Cc1cc(C(=N)N)cn2cc(-c3cccc(-c4ccc(C(=N)N)cc4)c3)nc12,3,7.07,7.31,> 27,>50 days,–
N=C(NO)c1ccc(-c2ccc(-c3cn4cc(/C(N)=N/O)ccc4n3)o2)cc1,–,5.80,5.66,–,–,Survival (Mus musculus [10]): >19.5 days; No. of cures (Mus musculus [11]): 1
N=C(N)c1ccc(-c2ccc(-c3cn4c(n3)CCC(C(=N)N)C4)o2)cc1 (stereo not drawn),4,5.92,7.28,15.6,>60 days,No. of cures (Mus musculus [12]): 2; Survival (Mus musculus [13]): >51 days
N=C(NO)c1ccc(-c2ccc(-c3cn4cc(/C(N)=N/O)ccc4n3)cc2)cc1,–,6.28,–,–,–,Survival (Mus musculus [6]): 28 days; No. of cures (Mus musculus [7]): 0
